Results taken from article PMC4450870 (Pain, 2015).

Assays:
Format in all cases: cell-based
KCNQ2 [1] = target: KCNQ2 (Rattus norvegicus, UniProt O88943); assay: whole-cell voltage clamp, CHO cells
KCNQ2 [2] = target: KCNQ2 (Rattus norvegicus, UniProt O88943, R198A); assay: whole-cell voltage clamp, CHO cells
KCNQ2/KCNQ3 = KCNQ2/KCNQ3 (Rattus norvegicus, UniProt O88943+O88944); assay: whole-cell patch clamp, transfected CHO cells; conditions: activator, −10 mV test potential, room temperature, bath pH 7.4
KCNQ2/KCNQ3, sequence (O88943 whole entry): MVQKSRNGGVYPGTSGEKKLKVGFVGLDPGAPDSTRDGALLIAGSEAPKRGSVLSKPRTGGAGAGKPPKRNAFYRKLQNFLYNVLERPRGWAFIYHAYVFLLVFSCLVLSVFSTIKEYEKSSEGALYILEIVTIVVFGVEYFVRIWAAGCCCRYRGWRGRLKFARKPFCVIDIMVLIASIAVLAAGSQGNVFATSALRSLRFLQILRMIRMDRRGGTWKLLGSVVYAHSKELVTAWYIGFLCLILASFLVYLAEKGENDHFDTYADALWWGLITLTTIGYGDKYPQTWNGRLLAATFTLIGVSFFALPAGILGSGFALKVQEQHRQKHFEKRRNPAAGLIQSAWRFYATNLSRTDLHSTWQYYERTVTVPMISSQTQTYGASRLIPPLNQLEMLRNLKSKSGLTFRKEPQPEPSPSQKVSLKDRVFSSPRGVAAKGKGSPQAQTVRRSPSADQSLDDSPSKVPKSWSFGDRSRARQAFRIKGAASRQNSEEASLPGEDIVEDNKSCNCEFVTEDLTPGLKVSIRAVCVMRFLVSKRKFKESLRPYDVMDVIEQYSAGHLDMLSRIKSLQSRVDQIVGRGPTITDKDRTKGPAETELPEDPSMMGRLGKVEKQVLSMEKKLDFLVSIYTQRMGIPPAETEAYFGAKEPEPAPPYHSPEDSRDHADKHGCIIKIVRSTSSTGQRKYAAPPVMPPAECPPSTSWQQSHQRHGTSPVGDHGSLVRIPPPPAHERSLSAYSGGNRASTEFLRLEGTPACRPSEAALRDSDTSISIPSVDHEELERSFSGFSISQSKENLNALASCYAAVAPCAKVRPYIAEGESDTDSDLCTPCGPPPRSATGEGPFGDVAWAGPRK
KCNQ2/KCNQ3, sequence (O88944 whole entry): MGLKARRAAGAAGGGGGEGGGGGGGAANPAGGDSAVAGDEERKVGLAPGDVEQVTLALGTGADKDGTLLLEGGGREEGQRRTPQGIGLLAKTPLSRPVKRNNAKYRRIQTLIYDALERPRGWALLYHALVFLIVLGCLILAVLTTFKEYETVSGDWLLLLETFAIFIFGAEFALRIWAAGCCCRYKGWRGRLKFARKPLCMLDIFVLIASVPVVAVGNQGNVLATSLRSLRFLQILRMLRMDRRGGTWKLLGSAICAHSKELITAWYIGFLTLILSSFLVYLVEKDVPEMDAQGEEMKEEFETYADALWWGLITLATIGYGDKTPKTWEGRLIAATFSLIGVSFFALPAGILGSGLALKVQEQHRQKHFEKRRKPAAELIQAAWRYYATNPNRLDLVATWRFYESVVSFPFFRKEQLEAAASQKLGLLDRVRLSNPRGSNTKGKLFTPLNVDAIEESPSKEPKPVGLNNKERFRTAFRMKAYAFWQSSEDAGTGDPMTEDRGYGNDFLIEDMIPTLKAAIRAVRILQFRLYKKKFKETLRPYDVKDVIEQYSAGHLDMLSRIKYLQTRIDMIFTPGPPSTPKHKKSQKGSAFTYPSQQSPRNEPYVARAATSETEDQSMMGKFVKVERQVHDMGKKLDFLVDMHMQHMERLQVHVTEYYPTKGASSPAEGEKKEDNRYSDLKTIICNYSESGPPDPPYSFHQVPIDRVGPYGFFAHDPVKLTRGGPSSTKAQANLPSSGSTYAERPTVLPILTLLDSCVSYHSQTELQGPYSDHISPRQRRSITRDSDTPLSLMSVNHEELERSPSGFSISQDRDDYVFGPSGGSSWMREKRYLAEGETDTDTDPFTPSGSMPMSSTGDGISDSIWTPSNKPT

KCNQ2 (Rattus norvegicus, UniProt O88943, R198A), sequence (O88943 whole entry R198A): as the sequence (O88943 whole entry) above, with R198A counted along it
KCNQ2 (Rattus norvegicus, UniProt O88943), sequence (O88943 whole entry): as the sequence (O88943 whole entry) above

EC50 (KCNQ2 [1]): 4.32 ± 1.4 µM | EC50 (KCNQ2 [2]): 28.2 ± 1.32 µM | fold increase of outward current at 10 μM (KCNQ2/KCNQ3): ~ 1.64 ± 0.08 fold
Structure (SMILES): CCc1oc2ccccc2c1C(=O)c1cc(Br)c(O)c(Br)c1 [benzbromarone]
